Source: patent publication US20240300940A1, “Phenothiazinyl Compounds and Uses” (Prosetta Biosciences, Inc., priority 2023, published 2024)
Like-named read-outs stand apart in the source and are kept apart here.

Experiments:
Organ exposure in mice = conditions: mice IV 3 mg/kg
S. epidermidis ATCC14990 = test: MIC assay, serial dilution; conditions: Staphylococcus epidermidis
A. baumannii ATCC19606 = test: MIC assay, serial dilution; conditions: Acinetobacter baumannii
MRSA ATCC 43300 = test: Minimum biofilm inhibition assay; format: cell-based, S. aureus
Method: The biofilm susceptibility assay and calculation of the percent reduction of AB were performed as described previously (Pettit et al., Antimicrob Agents Chem 2005, 49:2612-17). Biofilm formation was induced by growing MRSA on TSA containing 2% glucose at 37° C. for 24 hrs. After the incubation, culture was used to adjust the cell number to 1-5×10^5 CFU/mL. In parallel, two-fold dilutions of test drug/antibiotic in DMSO/solvent was prepared separately in a PCR dilution plate. 100 μL of CFU adjusted 100 μL of culture was added to 96 well plate by leaving wells for only media control. After adding culture, 2-fold diluted compound in 100% DMSO was added to 96 well plate and plates were incubated another 16-20 hrs at 37° C., to check susceptibility of biofilm forming MRSA with test drug/antibiotic. After susceptibility incubation, Resazurin was added to check inhibition of biofilm forming cells.

S. pyogens ATCC49399 = test: MIC assay, serial dilution; conditions: Streptococcus
E. coli ATCC25922 = test: MIC assay, serial dilution; conditions: Escherichia coli
MRSA/S. aureus isolates = test: MIC50 against isolates; format: cell-based; conditions: Staphylococcus aureus

## CC1(C)C2CN(c3ccc4nc5ccc(N6CC7C(C6)C7(C)C)cc5[s+]c4c3)CC21 (centres unmarked) [Compound 1, 3,7-Di(6,6-dimethyl-3-azabicyclo[3.1.0]hexan-N-yl)phenothiazinium iodide]
Organ exposure in mice; Brain, 0.5 hrs
  Organ exposure, concentration: 81 ng
Organ exposure in mice; Brain, 2 hrs
  Organ exposure, concentration: 56 ng
Organ exposure in mice; Brain, 24 hrs
  Organ exposure, concentration: 30 ng
Organ exposure in mice; Heart, 0.5 hrs
  Organ exposure, concentration: 1335 ng
Organ exposure in mice; Heart, 2 hrs
  Organ exposure, concentration: 1951 ng
Organ exposure in mice; Heart, 24 hrs
  Organ exposure, concentration: 821 ng
Organ exposure in mice; Kidney, 0.5 hrs
  Organ exposure, concentration: 1817 ng
Organ exposure in mice; Kidney, 2 hrs
  Organ exposure, concentration: 2179 ng
Organ exposure in mice; Kidney, 24 hrs
  Organ exposure, concentration: 637 ng
Organ exposure in mice; Liver, 0.5 hrs
  Organ exposure, concentration: 13897 ng
Organ exposure in mice; Liver, 2 hrs
  Organ exposure, concentration: 11563 ng
Organ exposure in mice; Liver, 24 hrs
  Organ exposure, concentration: 864 ng
Organ exposure in mice; Lungs, 0.5 hrs
  Organ exposure, concentration: 13003 ng
Organ exposure in mice; Lungs, 2 hrs
  Organ exposure, concentration: 4178 ng
Organ exposure in mice; Lungs, 24 hrs
  Organ exposure, concentration: 661 ng
Organ exposure in mice; Muscle, 0.5 hrs
  Organ exposure, concentration: 154.5 ng
Organ exposure in mice; Muscle, 2 hrs
  Organ exposure, concentration: 324.5 ng
Organ exposure in mice; Muscle, 24 hrs
  Organ exposure, concentration: 168.33 ng
S. epidermidis ATCC14990
  MIC: 0.5 µg/mL
A. baumannii ATCC19606
  MIC: 2 µg/mL
MRSA ATCC 43300; MRSA ATCC 43300, biofilm forming
  MBIC: 0.25
MRSA ATCC 43300; biofilm forming MRSA
  concentration inhibiting biofilm forming MRSA: 1 × MIC
S. pyogens ATCC49399
  MIC: 0.25 µg/mL
E. coli ATCC25922; ATCC25922, E. coli ATCC25922
  MIC: 4 µg/mL
E. coli ATCC25922; ATCC25922, read-out: Anti-bacterial Activity (E. coli MIC (uM)), E. coli, Table 5
  MIC: 1.6 µM
MRSA/S. aureus isolates
  MIC50: 0.125 µg/mL
